Test results reported in ChEMBL document CHEMBL4680302, “Biologic-like In Vivo Efficacy with Small Molecule Inhibitors of TNFα Identified Using Scaffold Hopping and Structure-Based Drug Design Approaches” (J Med Chem, 2020).

Key:
[1] = biological target: Cytochrome P450 2C9 (Homo sapiens, UniProt P11712); assay: Inhibition of recombinant CYP2C9 (unknown origin); assay type: ADME
[2] = Permeability of the compound across apical to basolateral side of membrane in human Caco-2 cells; assay type: ADME, cell-based; settings: read-out: permeability
[3] = Cmax in mouse at 2 mg/kg, po; assay type: ADME, organism-based; design: route oral, dose 2 mg/kg; settings: in vivo
[4] = Drug exposure in TNFalpha-induced C57BL/6J mouse at 5 mg/kg, po pretreated with compound prior to 1 hr of TNFalpha challenge and measured at 3 hrs post dose; assay type: ADME, organism-based; settings: in vivo, read-out: Drug uptake
[5] = system: Mus musculus; assay: Antiarthritic activity against anticollagen antibody-induced arthritis BALB/c mouse model assessed as reduction in LPS-induced TNFalpha production administered orally twice daily followed by LPS stimulation after 6 hrs measured on day 12 by RT-PCR analysis; assay type: functional, organism-based; settings: dose 2-10 mg/kg, time 12.0 day
[6] = system: Mus musculus; assay: Antiarthritic activity against anticollagen antibody-induced arthritis BALB/c mouse model assessed as reduction in LPS-induced cells expressing B220 receptor administered orally twice daily followed by LPS stimulation after 6 hrs measured on day 12 by RT-PCR analysis; assay type: functional, organism-based; settings: dose 2-10 mg/kg, time 12.0 day
[7] = Terminal drug exposure in anticollagen antibody-induced arthritis BALB/c mouse model at 10 mg/kg, po BID followed by LPS stimulation after 6 hrs measured on day 12; assay type: ADME, organism-based; settings: in vivo, time 12 day, read-out: Drug uptake
[8] = Selectivity ratio of drug exposure in TNFalpha-induced C57BL/6J mouse at 5 mg/kg, po at 3 hrs post dose to IC50 for inhibition of human TNFalpha expressed in HEK-Blue-CD40L cells assessed as inhibition of NFkappaB activation by quanti-blue based SEAP assay
[9] = biological target: Voltage-gated inwardly rectifying potassium channel KCNH2 (Homo sapiens, UniProt Q12809); assay: Inhibition of human ERG by patch clamp assay
Voltage-gated inwardly rectifying potassium channel KCNH2, sequence (Q12809 whole entry): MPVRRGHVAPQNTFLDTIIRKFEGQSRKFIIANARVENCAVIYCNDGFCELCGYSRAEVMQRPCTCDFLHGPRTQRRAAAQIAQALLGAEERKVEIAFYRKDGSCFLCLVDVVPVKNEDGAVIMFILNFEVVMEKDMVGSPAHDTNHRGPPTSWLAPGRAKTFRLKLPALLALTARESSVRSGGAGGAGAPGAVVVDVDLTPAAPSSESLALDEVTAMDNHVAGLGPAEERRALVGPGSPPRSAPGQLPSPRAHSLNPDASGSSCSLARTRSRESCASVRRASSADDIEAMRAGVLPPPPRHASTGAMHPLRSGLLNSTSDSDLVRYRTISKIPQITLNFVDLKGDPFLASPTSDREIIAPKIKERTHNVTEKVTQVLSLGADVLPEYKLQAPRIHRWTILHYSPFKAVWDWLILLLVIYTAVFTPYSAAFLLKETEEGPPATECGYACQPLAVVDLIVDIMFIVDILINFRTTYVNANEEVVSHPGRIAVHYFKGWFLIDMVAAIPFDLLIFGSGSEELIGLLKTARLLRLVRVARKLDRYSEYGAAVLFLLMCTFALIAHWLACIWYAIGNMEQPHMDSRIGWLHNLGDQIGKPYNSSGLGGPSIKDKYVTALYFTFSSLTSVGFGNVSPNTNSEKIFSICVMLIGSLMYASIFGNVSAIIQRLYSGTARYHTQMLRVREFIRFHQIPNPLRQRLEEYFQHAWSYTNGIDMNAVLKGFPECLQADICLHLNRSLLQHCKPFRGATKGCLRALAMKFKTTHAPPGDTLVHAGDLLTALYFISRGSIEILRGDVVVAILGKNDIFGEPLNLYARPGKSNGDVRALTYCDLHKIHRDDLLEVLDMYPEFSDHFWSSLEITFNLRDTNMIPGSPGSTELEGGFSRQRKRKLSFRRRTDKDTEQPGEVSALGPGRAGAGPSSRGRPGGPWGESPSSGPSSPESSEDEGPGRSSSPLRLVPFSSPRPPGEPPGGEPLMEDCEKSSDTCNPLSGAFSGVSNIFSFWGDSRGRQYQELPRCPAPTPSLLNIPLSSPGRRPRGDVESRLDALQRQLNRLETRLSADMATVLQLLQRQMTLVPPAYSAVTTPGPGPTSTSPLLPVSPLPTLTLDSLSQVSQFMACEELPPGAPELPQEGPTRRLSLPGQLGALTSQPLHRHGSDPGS

Cytochrome P450 2C9, sequence (P11712 whole entry): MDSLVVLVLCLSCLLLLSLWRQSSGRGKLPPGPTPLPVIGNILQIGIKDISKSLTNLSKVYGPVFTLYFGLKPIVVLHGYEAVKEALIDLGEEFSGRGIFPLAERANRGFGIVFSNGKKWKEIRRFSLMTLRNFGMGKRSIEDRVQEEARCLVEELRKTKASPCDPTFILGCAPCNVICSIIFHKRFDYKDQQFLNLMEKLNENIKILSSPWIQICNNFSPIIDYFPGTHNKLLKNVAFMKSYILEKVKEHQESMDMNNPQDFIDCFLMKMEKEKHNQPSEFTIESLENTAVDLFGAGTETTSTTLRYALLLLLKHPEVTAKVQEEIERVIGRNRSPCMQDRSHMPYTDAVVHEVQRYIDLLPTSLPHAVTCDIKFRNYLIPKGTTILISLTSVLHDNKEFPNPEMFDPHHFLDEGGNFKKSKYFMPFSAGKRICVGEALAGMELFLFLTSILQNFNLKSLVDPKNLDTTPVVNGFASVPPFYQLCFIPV

IC50 [1]: 2 µM
Papp A→B [2]: 20 ×10⁻⁶ cm/s
Cmax [3]: 470 nM
concentration at 3 h [4]: 470 nM
concentration at 288 h [7]: 1130 nM
SMILES: Cc1nc2cc(F)c(-c3cnc(C(C)(C)O)nc3)nc2c(N[C@H](C)c2cc(C#N)ccc2F)c1Cl
Activity [5]: Dose-dependent effect
Activity [6]: Dose-dependent effect
Selectivity ratio [8]: 2
IC50 [9]: 5.6 µM
